Assay results taken from ChEMBL document CHEMBL3885861, “Open TG-GATES”.

Species: Rattus norvegicus
Assay: Open TG-GATES - Regimen: Single
Type: toxicity, organism-based, Sprague-Dawley
Design: regimen Single, gender Male, age 6 weeks
Settings: in vivo, po, 10 mg/kg, route gavage, dose level Low; for APTT / Bas / Eos / Fbg / Hb / Ht / Lym / MCH / MCHC / MCV / Mono / Neu / PT / Plat / RBC / Ret / WBC: tissue Blood; for KIDNEY_L / KIDNEY_R / KIDNEY_TOTAL: tissue Kidney; for LIVER: tissue Liver; for A/G / ALP / ALT / AST / BUN / CRE / Ca / Cl / DBIL / GLC / IP / K / LDH / Na / PL / RALB / TBIL / TC / TG / TP / gamma-GTP: tissue Plasma

CN(C)CCN(Cc1cccs1)c1ccccn1
TERMINAL_BW (3 h): 185 g | APTT (3 h): 20.7 s | Bas (3 h): 0% | Eos (3 h): 0.6% | Fbg (3 h): 285 mg/dL | Hb (3 h): 13.4 g/dL | Ht (3 h): 40.7% | Lym (3 h): 79.6% | MCH (3 h): 21.2 pg | MCHC (3 h): 32.9% | MCV (3 h): 64.6 fL | Mono (3 h): 2% | Neu (3 h): 17.2% | PT (3 h): 16.4 s | Plat (3 h): 111.1 x10_4/uL | RBC (3 h): 630.4 x10_4/ul | Ret (3 h): 7.5% | WBC (3 h): 82 x10_2/uL | KIDNEY_L (3 h): 0.8 g | KIDNEY_R (3 h): 0.8 g | KIDNEY_TOTAL (3 h): 1.6 g | LIVER (3 h): 8.1 g | A/G (3 h): 1.3 | ALP (3 h): 1664.4 IU/L | ALT (3 h): 41.2 IU/L | AST (3 h): 77.8 IU/L | BUN (3 h): 13.6 mg/dL | CRE (3 h): 0.2 mg/dL | Ca (3 h): 10.5 mg/dL | Cl (3 h): 107.6 meq/L | DBIL (3 h): 0.002 mg/dL | GLC (3 h): 171.6 mg/dL | IP (3 h): 8 mg/dL | K (3 h): 4.2 meq/L | LDH (3 h): 205.8 IU/L | Na (3 h): 144 meq/L | PL (3 h): 125.4 mg/dL | RALB (3 h): 3 g/dL | TBIL (3 h): 0.014 mg/dL | TC (3 h): 67.8 mg/dL | TG (3 h): 43.2 mg/dL | TP (3 h): 5.3 g/dL | gamma-GTP (3 h): 1.2 IU/L | TERMINAL_BW (6 h): 188.4 g | APTT (6 h): 20.6 s | Bas (6 h): 0% | Eos (6 h): 0.6% | Fbg (6 h): 294.6 mg/dL | Hb (6 h): 12.7 g/dL | Ht (6 h): 39% | Lym (6 h): 77.8% | MCH (6 h): 21.3 pg | MCHC (6 h): 32.6% | MCV (6 h): 65.3 fL | Mono (6 h): 2.2% | Neu (6 h): 18.6% | PT (6 h): 17.1 s | Plat (6 h): 119.7 x10_4/uL | RBC (6 h): 597.6 x10_4/ul | Ret (6 h): 7.6% | WBC (6 h): 70.2 x10_2/uL | KIDNEY_L (6 h): 0.9 g | KIDNEY_R (6 h): 0.9 g | KIDNEY_TOTAL (6 h): 1.9 g | LIVER (6 h): 8.2 g | A/G (6 h): 1.3 | ALP (6 h): 1485.8 IU/L | ALT (6 h): 37.6 IU/L | AST (6 h): 70.2 IU/L | BUN (6 h): 10.8 mg/dL | CRE (6 h): 0.1 mg/dL | Ca (6 h): 10.3 mg/dL | Cl (6 h): 106.6 meq/L | DBIL (6 h): 0.002 mg/dL | GLC (6 h): 171.6 mg/dL | IP (6 h): 9.6 mg/dL | K (6 h): 4.4 meq/L | LDH (6 h): 202.4 IU/L | Na (6 h): 141.6 meq/L | PL (6 h): 124 mg/dL | RALB (6 h): 2.9 g/dL | TBIL (6 h): 0.016 mg/dL | TC (6 h): 70.6 mg/dL | TG (6 h): 63.6 mg/dL | TP (6 h): 5.3 g/dL | gamma-GTP (6 h): 1 IU/L | TERMINAL_BW (9 h): 182.3 g | APTT (9 h): 20.7 s | Bas (9 h): 0% | Eos (9 h): 0.4% | Fbg (9 h): 314.8 mg/dL | Hb (9 h): 12.9 g/dL | Ht (9 h): 38.8% | Lym (9 h): 77.4% | MCH (9 h): 20.8 pg | MCHC (9 h): 33.3% | MCV (9 h): 62.5 fL | Mono (9 h): 2.2% | Neu (9 h): 19.4% | PT (9 h): 15.9 s | Plat (9 h): 114.9 x10_4/uL | RBC (9 h): 621.8 x10_4/ul | Ret (9 h): 7.4% | WBC (9 h): 62 x10_2/uL | KIDNEY_L (9 h): 0.8 g | KIDNEY_R (9 h): 0.9 g | KIDNEY_TOTAL (9 h): 1.7 g | LIVER (9 h): 7.8 g | A/G (9 h): 1.2 | ALP (9 h): 1429.4 IU/L | ALT (9 h): 30.2 IU/L | AST (9 h): 62.8 IU/L | BUN (9 h): 11.2 mg/dL | CRE (9 h): 0.1 mg/dL | Ca (9 h): 10.4 mg/dL | Cl (9 h): 106.4 meq/L | DBIL (9 h): 0 mg/dL | GLC (9 h): 171 mg/dL | IP (9 h): 9.6 mg/dL | K (9 h): 4.2 meq/L | LDH (9 h): 171 IU/L | Na (9 h): 142.4 meq/L | PL (9 h): 129 mg/dL | RALB (9 h): 3 g/dL | TBIL (9 h): 0.018 mg/dL | TC (9 h): 67.2 mg/dL | TG (9 h): 69.2 mg/dL | TP (9 h): 5.4 g/dL | gamma-GTP (9 h): 1 IU/L | TERMINAL_BW (24 h): 197.6 g | APTT (24 h): 19.8 s | Bas (24 h): 0% | Eos (24 h): 0.5% | Fbg (24 h): 282.8 mg/dL | Hb (24 h): 12.7 g/dL | Ht (24 h): 38.4% | Lym (24 h): 80.5% | MCH (24 h): 21.8 pg | MCHC (24 h): 33.1% | MCV (24 h): 65.8 fL | Mono (24 h): 1.8% | Neu (24 h): 16.8% | PT (24 h): 16.6 s | Plat (24 h): 114.6 x10_4/uL | RBC (24 h): 584 x10_4/ul | Ret (24 h): 7.2% | WBC (24 h): 94 x10_2/uL | KIDNEY_L (24 h): 0.9 g | KIDNEY_R (24 h): 0.9 g | KIDNEY_TOTAL (24 h): 1.7 g | LIVER (24 h): 9.3 g | A/G (24 h): 1.2 | ALP (24 h): 1858.2 IU/L | ALT (24 h): 42.2 IU/L | AST (24 h): 69.6 IU/L | BUN (24 h): 16.4 mg/dL | CRE (24 h): 0.2 mg/dL | Ca (24 h): 10.7 mg/dL | Cl (24 h): 107.4 meq/L | DBIL (24 h): 0.002 mg/dL | GLC (24 h): 180.6 mg/dL | IP (24 h): 7.3 mg/dL | K (24 h): 4.3 meq/L | LDH (24 h): 223.2 IU/L | Na (24 h): 142.8 meq/L | PL (24 h): 145.4 mg/dL | RALB (24 h): 2.9 g/dL | TBIL (24 h): 0.008 mg/dL | TC (24 h): 75.2 mg/dL | TG (24 h): 131.8 mg/dL | TP (24 h): 5.3 g/dL | gamma-GTP (24 h): 1 IU/L
